What was measured:
[1] = molecular target: Serine/threonine-protein kinase pim-1 (Homo sapiens) (UniProt P11309); details: Compound concentration 1000.0 nM
[2] = molecular target: Serine/threonine-protein kinase 3 (Homo sapiens) (UniProt Q13188); details: Compound concentration 1000.0 nM
[3] = molecular target: Calcium/calmodulin-dependent protein kinase type II subunit delta (Homo sapiens) (UniProt Q13557); details: Compound concentration 1000.0 nM
[4] = molecular target: D(1B) dopamine receptor (Homo sapiens) (UniProt P21918); details: Compound concentration 10.0 uM
[5] = molecular target: Macrophage colony-stimulating factor 1 receptor (Homo sapiens) (UniProt P07333); details: Compound concentration 1000.0 nM
[6] = molecular target: Leucine-rich repeat serine/threonine-protein kinase 2 (Homo sapiens) (UniProt Q5S007); details: Compound concentration 1000.0 nM
[7] = molecular target: Macrophage colony-stimulating factor 1 receptor (Homo sapiens) (UniProt P07333); details: Compound concentration 1000.0 nM; remark: listed apart in the source
[8] = molecular target: Fibroblast growth factor receptor 3 (Homo sapiens) (UniProt P22607); details: Compound concentration 1000.0 nM
[9] = molecular target: Ribosomal protein S6 kinase alpha-2 (Homo sapiens) (UniProt Q15349); details: Compound concentration 1000.0 nM
[10] = molecular target: Platelet-derived growth factor receptor beta (Homo sapiens) (UniProt P09619); details: Compound concentration 1000.0 nM
[11] = molecular target: Testis-specific serine/threonine-protein kinase 1 (Homo sapiens) (UniProt Q9BXA7); details: Compound concentration 1000.0 nM
[12] = molecular target: Mitogen-activated protein kinase kinase kinase 4 (Homo sapiens) (UniProt Q9Y6R4); details: Compound concentration 1000.0 nM
[13] = molecular target: Tyrosine-protein kinase HCK (Homo sapiens) (UniProt P08631); details: Compound concentration 1000.0 nM
[14] = molecular target: Serine/threonine-protein kinase PRP4 homolog (Homo sapiens) (UniProt Q13523); details: Compound concentration 1000.0 nM
[15] = molecular target: 5'-AMP-activated protein kinase catalytic subunit alpha-1 (Homo sapiens) (UniProt Q13131); details: Compound concentration 1000.0 nM
[16] = molecular target: Casein kinase I isoform delta (Homo sapiens) (UniProt P48730); details: Compound concentration 1000.0 nM
[17] = system: Receptor-type tyrosine-protein kinase FLT3 (Homo sapiens), P36888 [UNDEFINED MUTATION]; details: Compound concentration 1000.0 nM
[18] = molecular target: Protein kinase C epsilon type (Homo sapiens) (UniProt Q02156); details: Compound concentration 1000.0 nM
[19] = molecular target: 5-hydroxytryptamine receptor 1D (Homo sapiens) (UniProt P28221); details: Compound concentration 10.0 uM
[20] = molecular target: 5-hydroxytryptamine receptor 1B (Homo sapiens) (UniProt P28222); details: Compound concentration 10.0 uM
[21] = molecular target: Calcium/calmodulin-dependent protein kinase type 1B (Homo sapiens) (UniProt Q6P2M8); details: Compound concentration 1000.0 nM
[22] = molecular target: Ephrin type-A receptor 7 (Homo sapiens) (UniProt Q15375); details: Compound concentration 1000.0 nM
[23] = system: Serine/threonine-protein kinase B-raf (Homo sapiens), P15056 [V600E]; details: Compound concentration 1000.0 nM
[24] = molecular target: 5'-AMP-activated protein kinase catalytic subunit alpha-2 (Homo sapiens) (UniProt P54646); details: Compound concentration 1000.0 nM
[25] = system: Epidermal growth factor receptor (Homo sapiens), P00533 [UNDEFINED MUTATION]; details: Compound concentration 1000.0 nM
[26] = molecular target: Serine/threonine-protein kinase PLK2 (Homo sapiens) (UniProt Q9NYY3); details: Compound concentration 1000.0 nM
[27] = molecular target: Serine/threonine-protein kinase Nek7 (Homo sapiens) (UniProt Q8TDX7); details: Compound concentration 1000.0 nM
[28] = system: Phosphatidylinositol 4,5-bisphosphate 3-kinase catalytic subunit alpha isoform (Homo sapiens), P42336 [H1047Y]; details: Compound concentration 1000.0 nM
[29] = molecular target: MAP kinase-activated protein kinase 2 (Homo sapiens) (UniProt P49137); details: Compound concentration 1000.0 nM
[30] = molecular target: Cytoplasmic tyrosine-protein kinase BMX (Homo sapiens) (UniProt P51813); details: Compound concentration 1000.0 nM
[31] = molecular target: Ribosomal protein S6 kinase alpha-1 (Homo sapiens) (UniProt Q15418); details: Compound concentration 1000.0 nM
[32] = molecular target: P2Y purinoceptor 1 (Rattus norvegicus) (UniProt P49651); assay: P2Y/RAT Eurofins-Panlabs selectivity data (BI); details: Compound concentration 10.0 uM
[33] = molecular target: Histamine H2 receptor (Homo sapiens) (UniProt P25021); assay: H2/H Eurofins-Panlabs selectivity data (BI); details: Compound concentration 10.0 uM
[34] = molecular target: Neuropeptide Y receptor type 1 (Homo sapiens) (UniProt P25929); assay: Y1/HU Eurofins-Panlabs selectivity data (BI); details: Compound concentration 10.0 uM
[35] = molecular target: Gamma-aminobutyric acid type B receptor subunit 1 (Homo sapiens) (UniProt Q9UBS5); assay: GABA_B1A Eurofins-Panlabs selectivity data (BI); details: Compound concentration 10.0 uM
[36] = molecular target: Thyroid hormone receptor alpha (Rattus norvegicus) (UniProt P63059); assay: THYROID HORM Eurofins-Panlabs selectivity data (BI); details: Compound concentration 10.0 uM
[37] = molecular target: Prostaglandin E2 receptor EP4 subtype (Homo sapiens) (UniProt P35408); assay: PEP4_HU Eurofins-Panlabs selectivity data (BI); details: Compound concentration 10.0 uM
[38] = molecular target: Interleukin-1 receptor type 1 (Mus musculus) (UniProt P13504); assay: IL-1 Eurofins-Panlabs selectivity data (BI); details: Compound concentration 10.0 uM
[39] = molecular target: Protein kinase C alpha type (Mus musculus) (UniProt P20444); assay: PHORBOLE/M Eurofins-Panlabs selectivity data (BI); details: Compound concentration 10.0 uM
[40] = molecular target: Muscarinic acetylcholine receptor M1 (Homo sapiens) (UniProt P11229); assay: M1/HU Eurofins-Panlabs selectivity data (BI); details: Compound concentration 10.0 uM
[41] = molecular target: Substance-P receptor (Homo sapiens) (UniProt P25103); assay: NK1/HU Eurofins-Panlabs selectivity data (BI); details: Compound concentration 10.0 uM
[42] = molecular target: B2 bradykinin receptor (Homo sapiens) (UniProt P30411); assay: B2/H Eurofins-Panlabs selectivity data (BI); details: filed as antagonist, Compound concentration 10.0 uM
[43] = molecular target: Voltage-dependent L-type calcium channel subunit alpha-1C (diltiazem site) (Rattus norvegicus, UniProt P22002); assay: CA+/DILSI/RA Eurofins-Panlabs selectivity data (BI); details: compound concentration 10 uM, read-out: % Ctrl
[44] = molecular target: Adenosine receptor A1 (Homo sapiens) (UniProt P30542); assay: A1/HU Eurofins-Panlabs selectivity data (BI); details: Compound concentration 10.0 uM

Macrophage colony-stimulating factor 1 receptor (Homo sapiens), sequence (P07333 whole entry): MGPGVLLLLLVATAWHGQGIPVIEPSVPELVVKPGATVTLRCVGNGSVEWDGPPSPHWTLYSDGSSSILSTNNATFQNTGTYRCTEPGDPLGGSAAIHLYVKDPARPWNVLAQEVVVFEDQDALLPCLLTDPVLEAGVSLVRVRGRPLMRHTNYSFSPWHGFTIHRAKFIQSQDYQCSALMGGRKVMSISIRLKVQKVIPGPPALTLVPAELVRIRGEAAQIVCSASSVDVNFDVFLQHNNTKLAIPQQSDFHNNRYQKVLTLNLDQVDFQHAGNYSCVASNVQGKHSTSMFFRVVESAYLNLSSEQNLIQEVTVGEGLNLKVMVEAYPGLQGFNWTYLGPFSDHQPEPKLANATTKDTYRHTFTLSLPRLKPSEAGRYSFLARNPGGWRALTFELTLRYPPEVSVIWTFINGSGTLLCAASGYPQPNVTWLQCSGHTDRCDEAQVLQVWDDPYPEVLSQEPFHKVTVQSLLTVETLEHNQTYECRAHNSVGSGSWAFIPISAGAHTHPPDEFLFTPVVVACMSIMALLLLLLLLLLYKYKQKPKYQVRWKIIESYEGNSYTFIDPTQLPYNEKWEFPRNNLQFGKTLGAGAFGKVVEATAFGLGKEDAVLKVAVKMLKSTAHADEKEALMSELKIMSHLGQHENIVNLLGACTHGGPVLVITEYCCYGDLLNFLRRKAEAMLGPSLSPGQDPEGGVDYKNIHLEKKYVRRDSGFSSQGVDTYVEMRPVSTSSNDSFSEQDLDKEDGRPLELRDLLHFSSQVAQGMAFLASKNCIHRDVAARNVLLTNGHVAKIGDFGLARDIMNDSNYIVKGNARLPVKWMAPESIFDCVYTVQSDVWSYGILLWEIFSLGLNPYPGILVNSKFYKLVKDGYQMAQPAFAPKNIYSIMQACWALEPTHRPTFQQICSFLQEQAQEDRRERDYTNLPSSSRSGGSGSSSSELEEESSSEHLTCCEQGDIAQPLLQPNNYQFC
Testis-specific serine/threonine-protein kinase 1 (Homo sapiens), sequence (Q9BXA7 whole entry): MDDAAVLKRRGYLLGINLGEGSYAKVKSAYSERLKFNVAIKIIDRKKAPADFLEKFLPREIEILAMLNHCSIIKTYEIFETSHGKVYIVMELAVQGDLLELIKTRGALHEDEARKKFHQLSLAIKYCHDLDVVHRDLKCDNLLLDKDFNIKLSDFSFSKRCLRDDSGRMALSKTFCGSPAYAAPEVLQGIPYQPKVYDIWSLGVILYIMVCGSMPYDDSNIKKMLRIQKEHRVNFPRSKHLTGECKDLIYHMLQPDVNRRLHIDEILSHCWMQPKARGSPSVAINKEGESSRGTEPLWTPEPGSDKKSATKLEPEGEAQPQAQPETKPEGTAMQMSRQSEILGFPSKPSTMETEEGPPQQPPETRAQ
Serine/threonine-protein kinase Nek7 (Homo sapiens), sequence (Q8TDX7 whole entry, looked up, canonical isoform): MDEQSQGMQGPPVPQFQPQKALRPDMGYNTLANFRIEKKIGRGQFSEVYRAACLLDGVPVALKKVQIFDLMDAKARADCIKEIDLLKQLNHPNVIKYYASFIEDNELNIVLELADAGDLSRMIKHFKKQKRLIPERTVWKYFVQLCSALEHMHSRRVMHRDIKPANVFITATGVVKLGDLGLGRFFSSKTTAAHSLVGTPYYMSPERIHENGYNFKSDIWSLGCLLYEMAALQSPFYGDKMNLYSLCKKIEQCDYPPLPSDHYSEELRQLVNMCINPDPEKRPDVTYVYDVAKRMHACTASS
Platelet-derived growth factor receptor beta (Homo sapiens), sequence (P09619 whole entry): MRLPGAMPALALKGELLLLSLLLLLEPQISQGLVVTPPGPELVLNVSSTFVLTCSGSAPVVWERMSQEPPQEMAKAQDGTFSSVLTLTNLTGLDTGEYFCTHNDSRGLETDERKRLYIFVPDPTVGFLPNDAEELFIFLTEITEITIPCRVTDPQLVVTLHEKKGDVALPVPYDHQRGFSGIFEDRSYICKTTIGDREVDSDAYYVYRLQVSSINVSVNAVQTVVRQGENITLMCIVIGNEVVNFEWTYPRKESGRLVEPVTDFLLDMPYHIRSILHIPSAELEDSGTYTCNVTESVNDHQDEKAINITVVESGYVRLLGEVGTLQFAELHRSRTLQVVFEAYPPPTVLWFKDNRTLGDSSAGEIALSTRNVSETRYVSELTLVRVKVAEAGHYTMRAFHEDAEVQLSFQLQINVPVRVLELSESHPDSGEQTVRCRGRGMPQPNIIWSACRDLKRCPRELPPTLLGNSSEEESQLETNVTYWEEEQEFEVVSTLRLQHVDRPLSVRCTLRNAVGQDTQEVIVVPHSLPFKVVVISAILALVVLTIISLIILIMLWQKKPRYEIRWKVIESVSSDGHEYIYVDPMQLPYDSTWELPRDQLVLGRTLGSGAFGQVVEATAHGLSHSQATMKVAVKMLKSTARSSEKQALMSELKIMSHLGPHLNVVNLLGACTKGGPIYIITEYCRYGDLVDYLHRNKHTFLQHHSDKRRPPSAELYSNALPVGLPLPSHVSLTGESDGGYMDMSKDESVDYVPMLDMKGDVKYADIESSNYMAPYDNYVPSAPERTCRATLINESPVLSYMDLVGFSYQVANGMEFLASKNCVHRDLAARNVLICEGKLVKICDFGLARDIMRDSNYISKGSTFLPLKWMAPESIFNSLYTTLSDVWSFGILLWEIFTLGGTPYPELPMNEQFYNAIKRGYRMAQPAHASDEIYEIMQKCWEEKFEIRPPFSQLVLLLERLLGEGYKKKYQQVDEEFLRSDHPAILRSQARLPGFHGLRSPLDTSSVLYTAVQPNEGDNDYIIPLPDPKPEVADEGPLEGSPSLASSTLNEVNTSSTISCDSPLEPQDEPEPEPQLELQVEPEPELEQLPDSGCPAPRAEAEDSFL
MAP kinase-activated protein kinase 2 (Homo sapiens), sequence (P49137 whole entry, looked up): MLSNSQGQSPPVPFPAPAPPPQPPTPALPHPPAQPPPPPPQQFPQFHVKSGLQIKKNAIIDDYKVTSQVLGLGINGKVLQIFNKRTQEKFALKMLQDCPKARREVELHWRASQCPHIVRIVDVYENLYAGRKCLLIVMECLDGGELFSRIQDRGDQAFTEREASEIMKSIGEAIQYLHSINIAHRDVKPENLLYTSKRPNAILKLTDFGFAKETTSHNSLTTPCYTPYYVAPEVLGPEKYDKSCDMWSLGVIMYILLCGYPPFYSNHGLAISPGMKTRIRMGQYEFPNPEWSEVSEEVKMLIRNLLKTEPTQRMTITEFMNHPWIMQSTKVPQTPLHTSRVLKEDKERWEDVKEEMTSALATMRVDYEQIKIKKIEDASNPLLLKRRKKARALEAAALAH
Cytoplasmic tyrosine-protein kinase BMX (Homo sapiens), sequence (P51813 whole entry): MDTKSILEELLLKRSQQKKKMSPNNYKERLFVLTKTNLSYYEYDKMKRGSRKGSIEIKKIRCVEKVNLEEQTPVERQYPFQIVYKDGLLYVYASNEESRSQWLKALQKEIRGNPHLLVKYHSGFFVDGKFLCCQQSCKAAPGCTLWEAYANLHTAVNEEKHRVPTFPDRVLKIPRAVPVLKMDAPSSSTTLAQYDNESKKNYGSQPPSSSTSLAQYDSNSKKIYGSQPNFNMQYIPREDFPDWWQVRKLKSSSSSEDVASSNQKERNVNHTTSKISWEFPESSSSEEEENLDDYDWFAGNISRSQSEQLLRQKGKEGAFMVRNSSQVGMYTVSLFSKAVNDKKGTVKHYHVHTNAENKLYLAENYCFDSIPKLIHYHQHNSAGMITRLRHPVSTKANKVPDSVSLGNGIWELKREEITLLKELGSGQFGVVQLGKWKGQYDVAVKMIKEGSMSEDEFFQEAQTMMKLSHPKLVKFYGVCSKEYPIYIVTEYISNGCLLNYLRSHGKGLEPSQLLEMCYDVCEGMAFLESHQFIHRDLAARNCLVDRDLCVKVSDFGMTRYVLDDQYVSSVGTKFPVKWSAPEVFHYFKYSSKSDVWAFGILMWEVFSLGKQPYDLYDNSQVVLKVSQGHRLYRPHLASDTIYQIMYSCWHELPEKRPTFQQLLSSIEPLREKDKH
Casein kinase I isoform delta (Homo sapiens), sequence (P48730 whole entry, looked up, canonical isoform): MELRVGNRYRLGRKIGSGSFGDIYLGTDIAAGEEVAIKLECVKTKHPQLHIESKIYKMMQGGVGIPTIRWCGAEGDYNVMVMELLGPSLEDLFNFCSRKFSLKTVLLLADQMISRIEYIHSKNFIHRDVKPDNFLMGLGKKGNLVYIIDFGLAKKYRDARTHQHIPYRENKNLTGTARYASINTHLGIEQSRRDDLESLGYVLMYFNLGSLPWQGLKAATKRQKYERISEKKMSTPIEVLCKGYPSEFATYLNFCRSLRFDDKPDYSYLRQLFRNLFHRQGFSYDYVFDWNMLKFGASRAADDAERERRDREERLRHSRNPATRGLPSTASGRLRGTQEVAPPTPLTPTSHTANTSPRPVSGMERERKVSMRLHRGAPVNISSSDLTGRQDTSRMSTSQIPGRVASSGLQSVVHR
Calcium/calmodulin-dependent protein kinase type 1B (Homo sapiens), sequence (Q6P2M8 whole entry): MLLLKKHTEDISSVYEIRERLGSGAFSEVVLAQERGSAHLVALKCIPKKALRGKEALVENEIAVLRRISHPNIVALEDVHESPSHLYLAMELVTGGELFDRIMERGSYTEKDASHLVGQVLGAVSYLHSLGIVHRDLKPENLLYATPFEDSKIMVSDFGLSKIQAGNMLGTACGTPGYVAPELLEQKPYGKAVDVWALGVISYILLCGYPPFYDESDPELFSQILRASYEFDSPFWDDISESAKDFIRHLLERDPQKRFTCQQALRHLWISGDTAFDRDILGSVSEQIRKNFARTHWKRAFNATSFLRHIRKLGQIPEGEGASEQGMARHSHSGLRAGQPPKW
5-hydroxytryptamine receptor 1D (Homo sapiens), sequence (P28221 whole entry): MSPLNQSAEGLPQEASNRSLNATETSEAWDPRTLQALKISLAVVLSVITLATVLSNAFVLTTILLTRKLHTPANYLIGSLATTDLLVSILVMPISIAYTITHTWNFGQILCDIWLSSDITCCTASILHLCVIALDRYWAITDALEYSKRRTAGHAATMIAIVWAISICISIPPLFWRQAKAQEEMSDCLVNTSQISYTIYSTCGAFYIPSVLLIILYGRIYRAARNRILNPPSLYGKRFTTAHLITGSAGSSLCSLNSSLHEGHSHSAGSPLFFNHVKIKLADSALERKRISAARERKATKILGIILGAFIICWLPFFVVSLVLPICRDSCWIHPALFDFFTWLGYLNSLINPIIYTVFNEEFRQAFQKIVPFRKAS

Compound: CS(=O)(=O)NCC[C@H](NC(=O)c1cncc2c1cnn2-c1ccc(F)cc1)c1ccnc(S(C)(=O)=O)c1 [BI 9307]
- residual activity [1]: 96%
- residual activity [2]: 100%
- residual activity [3]: 100%
- inhibition [4]: 36%
- residual activity [5]: 100%
- residual activity [6]: 86%
- residual activity [7]: 100%
- residual activity [8]: 100%
- residual activity [9]: 100%
- residual activity [10]: 100%
- residual activity [11]: 99%
- residual activity [12]: 84%
- residual activity [13]: 100%
- residual activity [14]: 69%
- residual activity [15]: 100%
- residual activity [16]: 100%
- residual activity [17]: 92%
- residual activity [18]: 100%
- inhibition [19]: 38.9%
- inhibition [20]: 47.7%
- residual activity [21]: 85%
- residual activity [22]: 82%
- residual activity [23]: 100%
- residual activity [24]: 97%
- residual activity [25]: 71%
- residual activity [26]: 100%
- residual activity [27]: 90%
- residual activity [28]: 100%
- residual activity [29]: 100%
- residual activity [30]: 100%
- residual activity [31]: 100%

Compound: CS(=O)(=O)c1cc(C2(NC(=O)c3cncc4c3cnn4-c3ccc(F)cc3)CC2)ccn1 [BI 639667]
- residual activity [1]: 100%
- residual activity [2]: 100%
- residual activity [3]: 76%
- residual activity [32]: 88%
- residual activity [33]: 89%
- residual activity [34]: 101%
- inhibition [4]: -0.37%
- residual activity [5]: 79%
- residual activity [35]: 90%
- residual activity [6]: 43%
- residual activity [36]: 74%
- residual activity [7]: 100%
- residual activity [8]: 100%
- residual activity [37]: 97%
- residual activity [9]: 100%
- residual activity [10]: 93%
- residual activity [11]: 63%
- residual activity [38]: 90%
- residual activity [39]: 93%
- residual activity [12]: 87%
- residual activity [40]: 99%
- residual activity [13]: 100%
- residual activity [14]: 100%
- residual activity [15]: 99%
- residual activity [16]: 99%
- residual activity [41]: 95%
- residual activity [17]: 100%
- residual activity [18]: 100%
- residual activity [42]: 100%
- inhibition [19]: 14.5%
- inhibition [20]: 13.5%
- residual activity [21]: 78%
- residual activity [23]: 94%
- residual activity [24]: 100%
- activity at 10 µM [43]: 58% (not active)
- residual activity [26]: 70%
- residual activity [44]: 82%
- residual activity [27]: 100%
- residual activity [28]: 100%
- residual activity [29]: 100%
- residual activity [30]: 100%
- residual activity [31]: 79%

— ChEMBL document CHEMBL4507278 (2021)
